The record followed here is PubChem BioAssay (NCI).

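Method: 48-hour compound exposure of cells in 96-well plates, five concentrations, linear interpolation of endpoints. TGI: total growth inhibition.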

Some test systems named below: A498 renal; A549 NSCLC; ACHN renal; EKVX NSCLC; HCT-15 colon; HL-60(TB) leukemia; HOP-92 NSCLC; HT29 colon; MALME-3M melanoma; NCI-H226 lung; NCI-H522 lung; NCI/ADR-RES ovarian; OVCAR-4 ovarian; RPMI-8226 leukemia; SF-268 CNS; SK-MEL-28 melanoma; SK-MEL-5 melanoma; SK-OV-3 ovarian; U251 CNS; UO-31 renal.
What all share (experiment): DTP human tumour cell line panel, 48 h

Turning to `CN(C)c1ccc(N=Nc2ccccn2)cc1`, the TGI in the assay with A498 renal is 94.7 µM; with A549 NSCLC it was above 100 µM; in the assay with ACHN renal, above 100 µM; in the assay with EKVX NSCLC it was above 100 µM; in the assay with HCT-15 colon, above 100 µM; in the assay on HL-60(TB) leukemia, 52.3 µM. In addition, the TGI with HOP-92 NSCLC was above 100 µM; in the assay with HT29 colon it was above 100 µM; with MALME-3M melanoma it was above 100 µM; in the assay on NCI-H226 lung it was above 100 µM; in the assay on NCI-H522 lung it was above 100 µM; in the assay with NCI/ADR-RES ovarian, 66.1 µM. The TGI in the assay on OVCAR-4 ovarian, in the assay on RPMI-8226 leukemia, with SF-268 CNS, in the assay with SK-MEL-28 melanoma, in the assay with SK-MEL-5 melanoma and in the assay on SK-OV-3 ovarian was above 100 µM each time. The TGI in the assay on U251 CNS was determined as 33 µM; with UO-31 renal, 79.8 µM.
